How the values were obtained:
HIV-1 pNL43 = test: HIV-1 replication in PHA/IL-2 stimulated human PBMCs, p24 ELISA; type: cell-based; details: p24 ELISA, 5 days post infection
Method: Freshly isolated uninfected human PBMCs were stimulated with PHA for two days, washed, and grown from then on in IL-2 alone. […] Antigen p24 was measured 5 days post infection using a sandwich ELISA kit.
To isolate PBMCs, 24 ml of total blood diluted two fold in RPMI or PBS were carefully layered over 12 ml of Ficoll-paque and centrifuged at 2000 rpm for 20 min (brakes off). Resultant layers are approximately from top to bottom: plasma-platelets-PBMC-Ficoll-red blood cells (with granulocytes). Most of the plasma was pipetted off and discarded. The buffy coat with PBMC's was carefully removed from 3 large (50 ml) tubes and transferred to a new 50 ml tube. The remaining Ficoll and red blood cells were discarded in closed tubes. Enough PBS was added to the PBMCs to make up 50 ml and centrifuged at 1200 rpm for 10 min, brakes on. The supernatant was decanted and the pellet was loosened and washed twice with PBS. Washed pellet was recovered in 30 ml of RPMI 1640 supplemented with 10% serum, 1% Penicillin-streptomycin and mixed well. PBMCs were counted and plated at 1×10^6 cells/ml. To activate the PBMCs, PHA (phytohaemagglutinin) was added at 3 μg/ml. Two to three days later add Interleukin 2 (IL2) at 3×10^−3 μg/ml.
PHA activated PBMCs were centrifuged and recovered at 6×10^6 cells in 3 ml complete RPMI. Then 3 ml of viral supernatant was added and incubated for 4 h at 37° C. After this period, cells were centrifuged, washed 3 times with PBS and recovered in 3 ml complete RPMI. PBMCs were plated at 0.5 ml per well in a 6-well plate, and 0.5 ml media with DMSO control or anti-viral control at 2× final concentration was added. IL-2 was added at 3×10^−3 μg/ml. Supernatant was recovered for p24 assay every 3-4 days post infection. Cells were split at 1×10^6 cell per ml every 5-7 days.
HIV-1 transcription is intimately linked to T-cell activation due to shared motifs between the HIV-LTR and the regulatory regions in induced genes, namely NF-κB. A large variety of T cell stimuli activate NF-κB, including PHA, IL-2 and tumor necrosis factor alpha (TNF-α).

HIV-1 pNL4-3 [1] = test: Chronically HIV-1 infected HeLa-CD4 cells, viral RNA by qRT-PCR / p24; type: cell-based; details: Human immunodeficiency virus 1; read-out: EC50 for abrogating chronic HIV infection
Method: FIG. 1G: p24 antigen quantification. Viral supernatants recovered from cells described in FIG. 1B, grown for 60 days, were assayed for their p24 antigen content using a sandwich ELISA kit. Error bars represent standard deviations.
First-strand cDNA from RNA for qPCR was prepared using […]™ first-strand cDNA kit (Invitrogen), following the manufacturer's instructions, using approximately 5 μg of RNA as starting material and random hexamers as first-strand primers. Quantitative PCR was performed with an aliquot of cDNA as template, using […]® 480 SYBR Green I Master (Roche) in a 20 μL reaction according to the manufacturer's instructions. […] The primers used were as follows: […]
Such an early time point rules out de novo infections. […] This conclusion was further supported by the fact that treatment of cells that were chronically infected, and therefore continuously shedding the virus (without incurring new infections, due to down-regulation of CD4 from the cell surface), reduced virus production to undetectable levels (FIG. 1F). […] Results were similar when viral release from cells treated for 60 days were measured by p24 enzyme-linked immunosorbent assay (ELISA) (FIG. 1G).

HIV-1 pNL4-3 [2] = test: Acute HIV-1 infection, HeLa-CD4-LTR-LacZ reporter CPRG assay; type: cell-based
Method: Forty-eight hours post infection a quantitative chlorophenol red-β-D-galactopyranoside (CPRG) assay was performed.
Twenty-four hours later HIV-1 pNL4-3 was added to the cells of both experiment sets (MOI>>10) in the presence of testing compound or DMSO control. CPRG assay performed 48 h later.
HeLa-CD4 cells were infected with HIV-1 pNL4-3 in the presence of the indicated compounds or DMSO. Forty hours post infection a CPRG assay was performed. […] Error bars represent standard deviation.
P42 cells were plated at 1×10^4 cells per well of 96 well. Twenty-four hours later HIV-1 pNL4-3 was added to the wells in the presence of testing compound or DMSO control in a total volume of […] Forty hours post infection cells were disrupted in lysis buffer (60 mM Na2HPO4, 40 mM NaH2PO4, 10 mM KCl, 10 mM MgSO4, 2.5 mM EDTA, 50 mM β-mercaptoethanol, 0.125% Nonidet P-40) and a quantitative chlorophenol red-β-D-galactopyranoside (CPRG)-based (Boehringer Mannheim) assay was performed. The cell extracts were incubated in a reaction buffer (0.9 M phosphate buffer [pH 7.4], 9 mM MgCl2, 11 mM β-mercaptoethanol, 7 mM CPRG) until a red color developed (from approximately 10 min to 4 h) and measured with an LP400 (Becton Dickinson) plate reader at 572 nm. Experiments were performed in triplicate.
Transcription of the HIV-1 provirus is regulated by both viral and cellular transcription factors. Before Tat is produced, low-level basal transcription from the viral promoter is initiated by cellular factors, such as the nuclear factor-kappa B (NF-kB), Sp1, TATA-binding protein and RNAPII. A desirable Tat inhibitor should block Tat-mediated activation of the viral promoter without affecting its basal transcription, which would result in cellular toxicity, given the shared transcription factors of the HIV promoter and cellular genes.

HeLa-CD4 cells = test: MTT mitochondrial metabolic activity (cell viability); type: cell-based
Tat = test: Biotinylated compound streptavidin-bead pull-down of Tat; type: binding, HIV-1; details: for competition for binding of recombinant Tat to Bio-dCA: excess competitor
Method: (§1) HEK293T cells were transfected with flag-tagged Tat 101 a.a. (Tat-F-101-wt), a shorter Tat version with 86 a.a. (Tat-F-86-wt), Tat 86 a.a. mutated in the basic domain (Tat-F-BRM), flag-tagged CDK11 (CDK11-F), flag-tagged 9G8 (9G8-F) and empty vector control.
Recombinant Tat protein was incubated with Bio-dCA streptavidin-coated beads in the presence or absence of an excess of non-biotinylated dCA (represented as molar equivalent [eq.] of Bio-dCA). Raltegravir and recombinant GST-9G8 were used as a negative control competitor or as negative protein-binding control, respectively.
(§2) DYNABEADS® MYONE™ Streptavidin T1 (12.5 μl slurry) (Invitrogen) were pre-saturated with 1.88 μl of 1 mM in DMSO of Biotin alone or Bio-dCA and incubated for 1 h at room temperature with orbital rocking, plus an additional 30 min with Biotin (0.63 μl of 1 mM in DMSO). Protein extracts (250 μg per sample) were incubated with the pre-saturated beads in lysis buffer supplemented with 0.1% BSA for 1 h at 4° C. with orbital rocking. After incubation, the beads were washed three times with lysis buffer.
For the pull-down of recombinant Tat (#2222 of NIH) and GST-9G8, streptavidin-agarose beads (40 μl slurry) were pre-saturated with 1.5 μl of 1 mM in DMSO, Biotin alone, or Bio-dCA and incubated for 1 h at room temperature. […] After incubation, the beads were washed three times with PBS and proteins were eluted as before.

CMV and MLV promoters = test: Transcription from CMV and MLV promoters; type: cell-based
Text: DNA-PK was identified as a binding partner of CA by mass spectrometry and further confirmation of this interaction was provided by performing a pull down assay (FIG. 15). Without wishing to be bound by theory, it was hypothesized that part of the mechanism by which CA inhibits HIV replication is by blocking the accrued DNA-PK phosphorylation of Sp1 mediated by Tat with a consequent reduction in both basal and Tat-mediated transcriptional activation of the HIV LTR promoter. Sp1 is thought to be essential for basal transcription and Tat-mediated activation of HIV-1.

CDK8 = CDK8 (Homo sapiens, UniProt P49336); details: cited from earlier work
Chain of CDK8 (P49336 whole entry): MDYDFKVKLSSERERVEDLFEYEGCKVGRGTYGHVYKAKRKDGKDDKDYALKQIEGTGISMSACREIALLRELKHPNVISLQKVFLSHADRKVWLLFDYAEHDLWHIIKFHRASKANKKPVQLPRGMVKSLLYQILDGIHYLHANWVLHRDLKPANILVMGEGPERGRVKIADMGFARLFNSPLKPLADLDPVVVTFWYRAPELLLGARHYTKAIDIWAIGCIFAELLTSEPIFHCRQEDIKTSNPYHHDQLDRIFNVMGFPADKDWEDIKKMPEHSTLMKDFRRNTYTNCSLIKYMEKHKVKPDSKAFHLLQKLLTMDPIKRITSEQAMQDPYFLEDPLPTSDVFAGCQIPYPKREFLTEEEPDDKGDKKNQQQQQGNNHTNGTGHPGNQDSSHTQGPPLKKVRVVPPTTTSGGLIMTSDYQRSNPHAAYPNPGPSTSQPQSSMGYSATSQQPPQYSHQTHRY

RNA polymerase = test: Bio-CA pull-down, RNA polymerase
[3] = system: basic region Tat mutant (Tat-1 BRM); test: Biotinylated compound pull-down of basic region Tat mutant; type: binding, HIV-1
Method: as §1, §2

ROCK II = ROCK II (Homo sapiens, UniProt O75116); details: cited from earlier work
Chain of ROCK II (O75116 whole entry): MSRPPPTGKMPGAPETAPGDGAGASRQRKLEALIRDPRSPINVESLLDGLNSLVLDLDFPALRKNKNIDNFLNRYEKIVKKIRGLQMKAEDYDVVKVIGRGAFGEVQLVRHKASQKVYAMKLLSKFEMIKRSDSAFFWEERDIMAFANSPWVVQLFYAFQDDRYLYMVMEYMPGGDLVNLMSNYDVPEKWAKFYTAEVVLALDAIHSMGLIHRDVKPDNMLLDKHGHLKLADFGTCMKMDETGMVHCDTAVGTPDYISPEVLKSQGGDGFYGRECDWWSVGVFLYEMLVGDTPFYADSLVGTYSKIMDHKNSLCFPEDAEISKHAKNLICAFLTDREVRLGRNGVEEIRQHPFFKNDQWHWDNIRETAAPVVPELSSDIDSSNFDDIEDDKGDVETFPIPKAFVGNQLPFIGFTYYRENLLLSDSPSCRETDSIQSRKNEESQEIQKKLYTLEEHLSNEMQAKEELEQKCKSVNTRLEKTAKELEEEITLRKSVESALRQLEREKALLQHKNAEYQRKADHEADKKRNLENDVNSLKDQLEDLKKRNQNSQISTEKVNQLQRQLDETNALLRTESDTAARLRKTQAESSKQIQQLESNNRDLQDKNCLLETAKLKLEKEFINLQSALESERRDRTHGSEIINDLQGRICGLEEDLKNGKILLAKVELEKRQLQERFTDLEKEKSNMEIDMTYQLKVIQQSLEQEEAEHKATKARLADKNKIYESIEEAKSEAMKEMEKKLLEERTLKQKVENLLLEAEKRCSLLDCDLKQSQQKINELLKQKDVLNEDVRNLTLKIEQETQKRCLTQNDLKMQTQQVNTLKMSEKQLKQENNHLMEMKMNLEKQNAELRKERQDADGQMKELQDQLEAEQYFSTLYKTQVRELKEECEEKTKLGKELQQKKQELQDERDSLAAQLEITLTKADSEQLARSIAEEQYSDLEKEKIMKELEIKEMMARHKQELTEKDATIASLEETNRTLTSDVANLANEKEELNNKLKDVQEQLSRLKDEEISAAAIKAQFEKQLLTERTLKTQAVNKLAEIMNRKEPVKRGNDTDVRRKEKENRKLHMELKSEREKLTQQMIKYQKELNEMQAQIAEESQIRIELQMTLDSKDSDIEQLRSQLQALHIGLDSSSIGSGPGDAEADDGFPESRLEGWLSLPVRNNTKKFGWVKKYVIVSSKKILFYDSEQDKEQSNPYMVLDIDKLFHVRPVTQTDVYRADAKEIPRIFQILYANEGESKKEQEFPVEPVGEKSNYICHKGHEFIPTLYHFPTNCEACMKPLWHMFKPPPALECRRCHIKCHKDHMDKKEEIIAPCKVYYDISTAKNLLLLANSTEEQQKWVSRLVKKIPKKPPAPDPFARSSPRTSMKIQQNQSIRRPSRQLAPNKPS

Sp1 = Sp1 (Homo sapiens, UniProt P08047); test: Bio-CA pull-down, Sp1
Chain of Sp1 (P08047 whole entry): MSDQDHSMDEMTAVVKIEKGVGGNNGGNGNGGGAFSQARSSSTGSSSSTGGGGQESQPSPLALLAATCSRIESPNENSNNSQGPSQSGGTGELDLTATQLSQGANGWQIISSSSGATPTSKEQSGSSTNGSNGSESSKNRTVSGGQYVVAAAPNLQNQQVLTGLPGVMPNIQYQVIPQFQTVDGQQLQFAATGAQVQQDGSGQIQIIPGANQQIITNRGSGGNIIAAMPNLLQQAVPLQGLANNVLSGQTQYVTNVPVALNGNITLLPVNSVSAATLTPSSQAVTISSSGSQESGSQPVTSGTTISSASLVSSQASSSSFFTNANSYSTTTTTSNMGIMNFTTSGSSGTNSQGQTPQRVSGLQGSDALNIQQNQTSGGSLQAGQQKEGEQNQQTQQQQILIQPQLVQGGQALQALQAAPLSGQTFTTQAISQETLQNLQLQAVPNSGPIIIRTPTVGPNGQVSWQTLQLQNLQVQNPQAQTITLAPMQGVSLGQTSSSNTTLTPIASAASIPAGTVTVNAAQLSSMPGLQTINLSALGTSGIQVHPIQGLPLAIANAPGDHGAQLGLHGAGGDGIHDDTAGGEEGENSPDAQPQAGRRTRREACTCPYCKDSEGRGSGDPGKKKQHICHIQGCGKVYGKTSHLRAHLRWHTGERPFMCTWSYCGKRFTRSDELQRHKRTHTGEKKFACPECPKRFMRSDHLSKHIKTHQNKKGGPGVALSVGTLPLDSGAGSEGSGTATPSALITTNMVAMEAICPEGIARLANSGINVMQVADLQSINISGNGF
Method: HEK293T cells were transfected with wt-Tat101-flag, vvtTat86-flag, Tat86mutant-TAR domain, CDK11-flag or 9G8-flag as negative control. Forty hours later, protein extracts were incubated with DYNABEADS® MYONE™ Streptavidin T1 coated with either biotin or Biotinylated-CA. Pulled down proteins analyzed by Western blot with the indicated antibodies.

CDK11 [4] = target: CDK11 (Homo sapiens, UniProt P21127); test: Biotinylated compound pull-down of CDK11; type: binding; set-up: expressed in transfected cells; host or cells: HEK293T
Chain of CDK11 (Homo sapiens, UniProt P21127) (P21127 whole entry): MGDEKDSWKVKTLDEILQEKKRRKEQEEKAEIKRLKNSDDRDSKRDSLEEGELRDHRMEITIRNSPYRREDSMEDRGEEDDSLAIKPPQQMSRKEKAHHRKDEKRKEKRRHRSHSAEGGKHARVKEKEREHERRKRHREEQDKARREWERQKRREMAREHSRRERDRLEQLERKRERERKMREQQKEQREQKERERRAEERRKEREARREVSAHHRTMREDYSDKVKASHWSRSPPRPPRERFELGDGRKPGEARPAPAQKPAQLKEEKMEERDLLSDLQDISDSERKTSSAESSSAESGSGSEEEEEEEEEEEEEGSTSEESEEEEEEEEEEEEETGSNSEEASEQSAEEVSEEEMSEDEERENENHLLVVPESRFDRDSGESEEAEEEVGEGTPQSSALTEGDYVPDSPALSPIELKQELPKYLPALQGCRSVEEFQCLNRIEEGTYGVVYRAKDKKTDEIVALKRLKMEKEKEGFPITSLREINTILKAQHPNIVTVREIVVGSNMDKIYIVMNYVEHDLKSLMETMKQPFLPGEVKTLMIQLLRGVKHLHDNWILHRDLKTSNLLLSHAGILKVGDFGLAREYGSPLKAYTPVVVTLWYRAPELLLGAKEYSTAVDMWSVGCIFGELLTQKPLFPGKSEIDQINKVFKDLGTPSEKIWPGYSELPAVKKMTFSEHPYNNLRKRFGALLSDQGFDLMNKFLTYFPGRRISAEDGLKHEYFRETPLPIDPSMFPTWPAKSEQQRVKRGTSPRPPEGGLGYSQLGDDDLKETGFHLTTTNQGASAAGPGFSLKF
Method: as §1, §2

CDK11 [5] = target: CDK11 (Homo sapiens, UniProt Q9BWU1); details: cited from earlier work
Chain of CDK11 (Homo sapiens, UniProt Q9BWU1) (Q9BWU1 whole entry): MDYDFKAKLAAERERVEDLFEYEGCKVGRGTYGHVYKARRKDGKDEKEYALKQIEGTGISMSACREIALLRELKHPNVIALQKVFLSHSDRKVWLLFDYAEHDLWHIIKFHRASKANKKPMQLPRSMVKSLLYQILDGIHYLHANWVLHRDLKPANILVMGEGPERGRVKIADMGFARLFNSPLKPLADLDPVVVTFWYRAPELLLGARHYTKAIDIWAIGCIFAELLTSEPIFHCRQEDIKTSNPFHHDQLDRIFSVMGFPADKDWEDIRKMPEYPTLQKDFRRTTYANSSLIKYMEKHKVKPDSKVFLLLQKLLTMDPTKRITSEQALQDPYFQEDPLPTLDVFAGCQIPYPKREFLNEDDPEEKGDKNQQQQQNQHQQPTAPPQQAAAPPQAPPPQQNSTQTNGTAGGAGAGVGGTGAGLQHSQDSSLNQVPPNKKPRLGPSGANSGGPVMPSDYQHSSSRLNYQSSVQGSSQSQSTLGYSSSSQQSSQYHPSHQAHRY

[6] = target: T1, DNA-dependent protein kinase (DNA-PK) catalytic subunit (Homo sapiens, UniProt P78527); test: Bio-CA pull-down / mass spectrometry, DNA-PK; type: binding
T1 construct: endogenous in cells; host or cells: P42 (HeLa-CD4-LTR-LacZ) cells; HEK293T cells
Method: FIG. 14: Bio-CA associated proteins. […] After SDS-PAGE analysis and Coomassie staining, gel slices were trypsin-digested and sent to mass spectrometry analysis.
To identify cellular proteins associated with CA, a biotinylated form of the compound (Bio-CA) was used. […] The Bio-CA was used to cover streptavidin-coated magnetic beads to pull down interacting proteins from either uninfected or chronically infected lysates of cells grown in the presence or absence of CA for 48 hours (FIG. 14D). The identity of the proteins pulled down under the different conditions was determined by HPLC MS/MS analysis. The proteins were identified with a greater than 95% confidence using a proprietary Scripps proteomics software package for protein identification, statistical analysis, and mass/peptide sequence correlation. The HIV proteome was added to the proteomics software search database before analysis. Many proteins were identified in uninfected untreated and in chronically untreated samples (approximately 300), however only 53 were displaced by more than 50% by the presence of CA. Of these 53 proteins, it appears that at least 2 may have a role in HIV-1 replication: DNA-dependent protein kinase catalytic subunit (DNA-PK) and helicase like transcription factor (HLTF).

[7] = system: human umbilical vein endothelial cells (HUVECs); details: read-out: average half maximal inhibitory concentration (IC50), anti-proliferative; cited from earlier work

CC(C)(C)NC(=O)[C@@H]1C[C@@H]2CCCC[C@@H]2CN1C[C@@H](O)[C@H](Cc1ccccc1)NC(=O)[C@H](CC(N)=O)NC(=O)c1ccc2ccccc2n1 [saquinavir, reference compound]
EC50, HIV-1 replication in primary cells (PBMCs) (HIV-1 pNL43): similar

Cc1cn([C@H]2C[C@H](N=[N+]=[N-])[C@@H](CO)O2)c(=O)[nH]c1=O [AZT, zidovudine, reference compound]
EC50 (HIV-1 pNL4-3 [1]): 5.2 nM

CN(C)[C@H]1C[C@@]23CC[C@@]4(O2)C(=CC[C@]2(C)C(c5ccc6ccncc6c5)=CC[C@H]24)C=C3[C@@H](OC(=O)CCCCCNC(=O)CCCC[C@@H]2SC[C@@H]3NC(=O)N[C@@H]32)[C@@H]1O.O=C(O)C(F)(F)F.O=C(O)C(F)(F)F [Bio-CA]
EC50 relative to CA (HIV-1 pNL4-3 [2]): 10 fold
viability of the cells (HeLa-CD4 cells): did not compromise the viability of the cells

Cc1nnc(C(=O)NC(C)(C)c2nc(C(=O)NCc3ccc(F)cc3)c(O)c(=O)n2C)o1 [Raltegravir, reference compound]
EC50, HIV-1 replication in primary cells (PBMCs) (HIV-1 pNL43): similar
competition for binding of recombinant Tat to Bio-dCA (Tat): not

CN(C)C1CC23CCC4(O2)C(=CCC2(C)C(c5ccc6ccncc6c5)CCC42)C=C3C(O)C1O (stereo not shown) [CA, Cortistatin A]
transcription activity from CMV and MLV promoters (CMV and MLV promoters): reduces the transcription activity
EC50 for the inhibition of HIV activity (HIV-1 pNL4-3 [2]): picomolar to low nanomolar range
Kd (CDK8): 17 ± 2 nM
pull down of RNA polymerase (RNA polymerase): shown to pull down
interaction with TAR-nonbinding basic region Tat mutant (pull-down) [3]: not
Kd (ROCK II): 220 ± 2 nM
interaction with Sp1 (Sp1): not observed
interaction with CDK11 (pull-down) (CDK11 [4]): did not interact
Kd (CDK11 [5]): 10 ± 2 nM
interaction with DNA-PK [6]: seems to interact
IC50 [7]: 350 nM
competition for binding of recombinant Tat to Bio-dCA (Tat): competed
interaction with Tat (pull-down) (Tat; flag-tagged Tat expressed in cells or recombinant Tat): interacts

Reference: US9682994B2, “Inhibitors of retroviral replication” (The Scripps Research Institute, priority 2011, dated 2017)
